Laboratory results reported in patent publication US20160220524A1, “COMPOSITIONS OF SMALL MOLECULE THERAPEUTICS” (NEXMED HOLDINGS, INC., priority 2015, published 2016).
Where a name gives a salt, the structure may show the parent alone.

Experiments:
[1] = water; cited from earlier work
[2] = Experimental: The compounds from BCS Class 2, 3 and 4 were each formulated at 5 mg/ml in a liquid carrier of either an aqueous solution of polyethylene glycol 400 (20% PEG 400), or an aqueous solution of DDAIP-HCL (20%). […] Cohorts of three animals per group were placed in the study. On day 1, animals from each group were dosed at 30 mg/kg (6 ml/kg) by oral gavage (PO). Animals were fed at the time of dosing. Serial blood samples were collected at pre-dose, and after post-dose intervals of 30 minutes, 1 hour, 2 hours and 4 hours. The blood samples were collected into lithium heparin-coated tubes. At each time point, 0.15 ml of blood was collected via left jugular vein cannulae and processed for collection of plasma by centrifuging at approximately 2,000 rpm for approximately 10 minutes. The cellular fraction of the blood was discarded. Collection times and volume of plasma samples were recorded and tabulated. Plasma samples were transferred into clean tubes and snap frozen onto dry ice. Samples were stored at −80° C. until ready for bio-analysis by LC/MS/MS. The drug concentration was measured from supernatant after centrifugation of the dosing solution
P-glycoprotein (P-gp) = P-glycoprotein (P-gp) (Homo sapiens, UniProt P08183); assay: Inhibition of P-glycoprotein; format: in vitro ADME; conditions: up to 10 mM
Chain of P-glycoprotein (P-gp) (P08183 whole entry): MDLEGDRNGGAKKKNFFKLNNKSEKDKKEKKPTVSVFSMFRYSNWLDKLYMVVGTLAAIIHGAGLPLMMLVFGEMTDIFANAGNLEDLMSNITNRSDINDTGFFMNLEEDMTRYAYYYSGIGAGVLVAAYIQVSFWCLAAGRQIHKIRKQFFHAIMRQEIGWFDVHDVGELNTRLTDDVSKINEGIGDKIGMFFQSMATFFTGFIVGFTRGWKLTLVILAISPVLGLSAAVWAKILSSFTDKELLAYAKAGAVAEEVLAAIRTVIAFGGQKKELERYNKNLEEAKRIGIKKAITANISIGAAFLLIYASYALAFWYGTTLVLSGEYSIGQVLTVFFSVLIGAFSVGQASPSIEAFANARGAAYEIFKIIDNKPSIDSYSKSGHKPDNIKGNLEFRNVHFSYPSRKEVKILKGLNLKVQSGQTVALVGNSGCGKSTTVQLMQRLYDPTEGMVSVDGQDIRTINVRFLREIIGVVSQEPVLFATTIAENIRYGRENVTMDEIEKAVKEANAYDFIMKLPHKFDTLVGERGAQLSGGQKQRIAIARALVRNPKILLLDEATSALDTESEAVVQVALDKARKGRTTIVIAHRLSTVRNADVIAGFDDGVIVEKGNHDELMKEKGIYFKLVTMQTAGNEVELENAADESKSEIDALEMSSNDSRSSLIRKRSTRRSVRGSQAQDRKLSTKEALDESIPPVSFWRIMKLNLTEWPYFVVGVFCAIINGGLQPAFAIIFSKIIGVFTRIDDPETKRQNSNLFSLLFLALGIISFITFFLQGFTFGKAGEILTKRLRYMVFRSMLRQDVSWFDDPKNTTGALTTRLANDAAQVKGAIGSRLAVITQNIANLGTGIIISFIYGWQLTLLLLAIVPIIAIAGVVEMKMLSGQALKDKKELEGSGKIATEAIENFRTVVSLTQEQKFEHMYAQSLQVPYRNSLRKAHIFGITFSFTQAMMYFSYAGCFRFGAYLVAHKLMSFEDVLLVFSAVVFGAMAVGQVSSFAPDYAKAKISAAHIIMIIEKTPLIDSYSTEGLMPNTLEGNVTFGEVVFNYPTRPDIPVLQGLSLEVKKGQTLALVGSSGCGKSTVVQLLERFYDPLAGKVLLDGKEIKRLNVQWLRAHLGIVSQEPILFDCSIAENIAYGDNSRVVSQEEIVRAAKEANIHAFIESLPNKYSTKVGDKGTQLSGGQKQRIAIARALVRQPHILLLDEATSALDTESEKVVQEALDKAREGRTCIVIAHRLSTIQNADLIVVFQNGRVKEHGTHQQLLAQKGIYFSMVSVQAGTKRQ

## NS(=O)(=O)c1cc2c(cc1Cl)N=CNS2(=O)=O [Chlorothiazide, chlorothiazide]
[1]
  Sol. H2O (reported solubility from the literature): 300 µg/mL
[2]
  Sol. over PEG (solubility improvement fold over PEG 400): >363 fold

## CCCCCCCCCCCCOC(=O)C(C)N(C)C (stereo not drawn) [DDAIP-HCL, dodecyl 2-(N,N-dimethylamino) propionate]
P-glycoprotein (P-gp)
  inhibition of P-glycoprotein (P-gp): no inhibition

## N[C@H]1C(O)O[C@H](CO)[C@@H](O)[C@@H]1O (stereo partly drawn) [Glucosamine, glucosamine]
[1]
  Sol. H2O (reported solubility from the literature): 551000 µg/mL

## O=C(CCCN1CCC(O)(c2ccc(Cl)cc2)CC1)c1ccc(F)cc1 [Haloperidol, haloperidol]
[1]
  Sol. H2O (reported solubility from the literature): 1 µg/mL
[2]
  form of the 5 mg/ml formulation (suspension or solution): suspensions

## O=C(O)c1cc(/N=N/c2ccc(S(=O)(=O)Nc3ccccn3)cc2)ccc1O [Sulfasalazine, sulfasalazine]
[1]
  Sol. H2O (reported solubility from the literature): 10 µg/mL
[2]
  Sol. over PEG (solubility improvement fold over PEG 400): >446 fold
  form of the 5 mg/ml formulation (suspension or solution): suspensions
